Like-named read-outs stand apart in the source and are kept apart here. Non-standard residues stand in square brackets, D forms with d. Residues, ends and D or L forms follow the SMILES beside them. Aoe = N[C@@H](CCCCCC(=O)[C@@H]1CO1)C(=O)O
Legend:
histone deacetylase [1] = assay: Histone deacetylase assay, release of [3H]acetic acid from [3H]acetylated histone H4 (1-24) peptide; type: biochemical; details: 20 nM; crude or partially purified (Mono Q) bovine thymus nuclear enzyme; pretreatment 30 min at 4° C.
Procedure: Nuclear proteins from bovine thymus were precipitated with ammonium sulfate and fractionated on a Mono Q column. […] For the histone deacetylase assay, a peptide corresponding to bovine histone H4 (1-24) was synthesized. The peptide was chemically acetylated with sodium [^3H]acetate (5.3 Ci/mmol, New England Nuclear)/BOP reagent (Aldrich) and purified by reverse phase HPLC. Two microliters of [^3H]peptide (˜40,000 dpm) were used per […] assay. After incubation at 37° C. for one hour, the reaction was quenched with 1 M HCl/0.16 M acetic acid (50 μl). Released [^3H]acetic acid was extracted with 600 μl of ethyl acetate and quantified by scintillation counting. […] A280=absorbance at 280 n.
Briefly, thymocytes (˜12 g) prepared from fresh bovine thymus were homgenized in hypotonic lysis buffer [20 mM tris (pH 7.8), 20 mM NaCl, 1 mM EDTA, 10% glycerol, 1 mM PMSF, 1 mM benzamidine, 10 μg/ml each of pepstatin, aprotinin, and leupeptin] by mechanical disruption and the nuclei were isolated by centrifugation at 3000 g. Nuclei were resuspended in lysis buffer and the proteins were extracted with 0.4 M ammonium sulfate. The viscous lysate was sonicated and clarified by centrifugation at 100,000 g for one hour. Proteins were then precipitated with 90% saturated ammonium sulfate and recovered by centrifugation (100,000 g, one hour). […]

trapoxin binding protein = assay: Trapoxin binding, charcoal precipitation assay with [3H]trapoxin; details: simultaneous addition, bovine thymus extracts
histone deacetylase [2] = details: cited from earlier work; for histone deacetylation: cultured mammalian cells, fractioned cell extracts
bovine p46-p50 = assay: Binding of bovine thymus nuclear proteins to K-trap affinity matrix in presence of inhibitors, silver stained gel; details: incubation in presence of inhibitor
Procedure: Nuclear proteins from human Jurkat T cells were prepared identically to those from bovine thymus (FIG. 1B). Molecular size standards (in kilodaltons) are indicated to the right.
K-trap was deprotected with Pd(Ph3P)4 and coupled to an activated agarose matrix (FIG. 2A). […] Bound polypeptides were eluted by boiling the matrix in 1% SDS buffer and separated b polyacrylamide gel electrophoresis.

mammalian cells = details: cited from earlier work; for gene expression and differentiation: certain mammalian cell lines; for cell cycle arrest: mammalian cells
HD1 = molecular target: T1, HD1 (Homo sapiens, UniProt Q13547); assay: Histone deacetylase activity of anti-HD1(467-482) immunoprecipitates from Jurkat nuclear extract; type: biochemical; details: endogenous HD1 from Jurkat crude nuclear extracts
T1 construct: endogenous in cells; host or cells: Jurkat T cells (nuclear extract)
Procedure: After resuspending the immunoprecipitates in HDx buffer [20 mM tris (pH 8), 150 mM NaCl, 10% glycerol], inhibitors were added as indicated, and histone deacetylase activity was measured as described in FIG. 1A.
We used affinity purified antibodies directed against a COOH-terminal peptide (amino acids 467 to 482) to immunoprecipitate HD1 from crude nuclear extracts.

[3] = molecular target: T2, recombinant FLAG epitope tagged HD1 (HD1-F) (Homo sapiens, UniProt Q13547); assay: Histone deacetylase activity of anti-FLAG immunoprecipitates of recombinant HD1-F; type: biochemical; details: Jurkat cells transfected with pBJ5/HD1-F
T2 construct: expressed in transfected cells; host or cells: Tag Jurkat cells, electroporated with pBJ5/HD1-F
Procedure: Anti-FLAG antibodies conjugated to agarose beads (IBI) were used to immunoprecipitate recombinant HD1 in the presence or absence of FLAG peptide competitor, and histone deacetylase activity was measured as described above.

HD1 and RbAp48 = molecular target: T3, HD1 and RbAp48 (Homo sapiens, UniProt Q13547); assay: Immunoblot of proteins eluted from K-trap affinity matrix; type: binding, bovine and human; details: affinity purification in presence of inhibitor
T3 construct: endogenous in cells; host or cells: Jurkat nuclear extract (the same blot also carries bovine thymus nuclear proteins)
Excerpt: Proteins eluted from the K-trap affinity matrix (FIG. 2) were separated by SDS-PAGE and transferred to Immobilon-P (Millipore). Blots were probed with polyclonal anti-HD1 (319-336) or monoclonal anti-RbAp48 and bound antibodies were detected with enhanced chemiluminescence (Amersham).
To determine the relationship between the proteins from bovine thymus (p46-p50) and the proteins isolated from human Jurkat T cells (p50 and p55), an antiserum was generated against a peptide specified by the HD1 open reading frame (FIG. 3A, amino acids […]).

recombinant HD1-F = molecular target: T4, recombinant HD1-F (Homo sapiens, UniProt Q13547); assay: Interaction between recombinant HD1-F and K-trap affinity matrix, immunoblot; type: binding; details: lysates of transfected Jurkat cells
T4 construct: expressed in transfected cells; host or cells: Tag Jurkat cells, electroporated with pBJ5/HD1-F
Procedure: Lysates from Jurkat cells transfected with pBJ5/HD1-F were incubated with the K-trap affinity matrix in the presence or absence of inhibitors. Immunoblots of the eluted proteins were probed with the anti-FLAG M2 monoclonal antibody (IBI).

T4 sequence (Q13547 whole entry): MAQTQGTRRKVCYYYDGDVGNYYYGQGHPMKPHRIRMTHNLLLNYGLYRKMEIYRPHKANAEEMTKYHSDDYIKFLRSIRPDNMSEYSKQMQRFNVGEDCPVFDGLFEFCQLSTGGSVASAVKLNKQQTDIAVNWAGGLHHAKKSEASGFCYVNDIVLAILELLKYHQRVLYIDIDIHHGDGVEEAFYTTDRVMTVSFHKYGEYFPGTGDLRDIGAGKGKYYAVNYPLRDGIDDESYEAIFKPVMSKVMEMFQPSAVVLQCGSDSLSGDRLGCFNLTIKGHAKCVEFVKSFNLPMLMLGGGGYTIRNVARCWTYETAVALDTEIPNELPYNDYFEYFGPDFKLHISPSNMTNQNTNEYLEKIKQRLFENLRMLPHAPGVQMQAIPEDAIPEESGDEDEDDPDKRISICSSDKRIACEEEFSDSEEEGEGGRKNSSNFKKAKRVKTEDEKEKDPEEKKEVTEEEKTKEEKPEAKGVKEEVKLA
T1 sequence (Q13547 whole entry): as above
T1 sequence (Q09028 2-425 partner limits assumed): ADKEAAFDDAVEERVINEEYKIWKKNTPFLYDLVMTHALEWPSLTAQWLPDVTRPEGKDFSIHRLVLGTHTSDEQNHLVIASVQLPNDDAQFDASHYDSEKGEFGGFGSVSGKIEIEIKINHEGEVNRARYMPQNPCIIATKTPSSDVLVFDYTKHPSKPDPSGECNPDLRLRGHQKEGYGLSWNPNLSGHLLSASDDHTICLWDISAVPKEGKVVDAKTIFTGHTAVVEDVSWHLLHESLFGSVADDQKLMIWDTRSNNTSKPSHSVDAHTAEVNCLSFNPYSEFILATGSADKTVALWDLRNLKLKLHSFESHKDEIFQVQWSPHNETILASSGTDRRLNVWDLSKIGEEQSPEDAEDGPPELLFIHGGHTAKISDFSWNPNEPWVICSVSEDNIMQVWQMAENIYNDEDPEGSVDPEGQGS
T3 sequence (Q13547 whole entry): as the sequence (Q13547 whole entry) above
T3 sequence (Q09028 2-425 partner): as the sequence (Q09028 2-425 partner limits assumed) above
T2 sequence (Q13547 whole entry): as the sequence (Q13547 whole entry) above

| Structure (SMILES) | histone deacetylase activity after treatment (histone deacetylase [1]) | competition with [3H]trapoxin binding (trapoxin binding protein) | mode of inhibition of histone deacetylase activity (histone deacetylase [2]) | histone deacetylation (histone deacetylase [2]) | histone deacetylation (histone deacetylase [2]; listed as Trapoxin) | retention of bovine p46-p50 on K-trap matrix in the presence of inhibitor (bovine p46-p50) | gene expression and differentiation (mammalian cells) | cell cycle arrest (mammalian cells) | cell cycle arrest (mammalian cells; listed as Trapoxin) | histone deacetylase activity of HD1 immunoprecipitates (HD1) | histone deacetylase activity of HD1-F immunoprecipitates [3] | detection of HD1 and RbAp48 in K-trap matrix eluates (HD1 and RbAp48) | competition of HD1-F interaction with K-trap affinity matrix (recombinant HD1-F) | potency relative to sodium butyrate (mammalian cells) |
| --- | --- | --- | --- | --- | --- | --- | --- | --- | --- | --- | --- | --- | --- | --- |
| O=C1N[C@@H](Cc2ccccc2)C(=O)N2CCC[C@@H]2C(=O)N[C@@H](CCCCCC(=O)[C@@H]2CO2)C(=O)N[C@H]1Cc1ccccc1 [trapoxin] (cyclo(FF[dP][Aoe])) | abolished deacetylase activity | completed | “irreversible” inhibitor | inhibit histone deacetylation | inhibits histone deacetylation in vivo | not retained | alter gene expression and induce certain mammalian cell lines to differentiate | G1 and G2 phase cell cycle arrest | causes mammalian cells to arrest in the cell cycle | – | – | – | – | – |
| CC(/C=C/C(=O)NO)=C\[C@@H](C)C(=O)c1ccc(N(C)C)cc1 [trichostatin] | abolished deacetylase activity | competed | – | inhibit histone deacetylation | – | not retained | alter gene expression and induce certain mammalian cell lines to differentiate | G1 and G2 phase cell cycle arrest | – | inhibited | sensitive | neither HD1 nor RbAp48 was detected | fully competed by nanomolar concentrations | five orders of magnitude more potent |

— patent US8426592B2, “Histone deacetylases, and uses related thereto” (President and Fellows of Harvard College, priority 1996, dated 2013)
